Test results taken from PMC9933715 (Antimicrobial Agents and Chemotherapy, 2023).
Where two headings read alike, the source gives them in different places.

Tests used:
[1] = tested on: DENV-R2A (Rluc-expressing DENV, serotype 2 strain 16681); test: microbe, parasite or virus in culture; type: cell-based, Dengue virus; conditions: for activity at 50 µM: Dengue virus, Huh7.5, 48 h; for antiviral activity against DENV-R2A (SAR, in words): NPP3C analogues; for antiviral activity against DENV-R2A (SAR, in words) / inhibitory activity against DENV-R2A (SAR, in words): 50 μM
Huh7.5 cells = test: Cell viability, CellTiter-Glo luminescent assay
[2] = 6A1HI analogues, test concentration = 50 µM, Huh7.5 cells
[3] = Table S3, NPP3C analogues, 50 µM, Huh7.5, 2 days postinfection
[4] = Table S3, NPP3C analogues, 50 µM, Huh7.5
[5] = read-out: DENV-R2A replication (Fold DMSO), 6A1HI analogues, test concentration = 50 µM, Huh7.5 cells
[6] = read-out: DENV-R2A replication (Fold DMSO), Table S3, NPP3C analogues, 50 µM, Huh7.5, 2 days postinfection
[7] = read-out: DENV-R2A replication (fold DMSO), Table 2, 6A1HI analogues, 50 μM, Huh7.5, 2 days postinfection
[8] = Table 2, 6A1HI analogues, 50 μM, Huh7.5, 2 days
[9] = read-out: DENV-R2A replication (fold DMSO), Table 1, NPP3C analogues, 50 μM, Huh7.5, 2 days postinfection
[10] = Table 1, NPP3C analogues, 50 μM, Huh7.5, 2 days

| Compound | DENV-R2A replication (Fold DMSO) [1, 2] | DENV-R2A replication (Fold DMSO) [1, 3] | Cell viability (Fold DMSO) (Huh7.5 cells; [2]) | Cell viability (Fold DMSO) (Huh7.5 cells; [4]) | activity at 50 µM [1, 5] | activity at 50 µM [1, 6] | activity at 50 µM [1, 7] | Cell viability (Fold DMSO) (Huh7.5 cells; [8]) | activity at 50 µM [1, 9] | antiviral activity against DENV-R2A (SAR, in words) [1] | Cell viability (Fold DMSO) (Huh7.5 cells; [10]) | inhibitory activity against DENV-R2A (SAR, in words) ([1]; 6A1HI analogues) |
| --- | --- | --- | --- | --- | --- | --- | --- | --- | --- | --- | --- | --- |
| Nc1ccc(C(=O)Nc2ccccc2)cc1 [Compound 61] | 1.09 Fold DMSO | 0.98 Fold DMSO | 0.83 Fold DMSO | 0.98 Fold DMSO | – | – | – | – | – | – | – | – |
| O=C(Nc1ccncc1)c1ccccc1 [Compound 28] | 0.09 Fold DMSO | 1.05 Fold DMSO | 0.48 Fold DMSO | 1.05 Fold DMSO | – | – | – | – | – | – | – | – |
| N#CC(Cc1cccnc1)C(=O)Nc1ccccc1 (stereo not shown) [Compound 68] | 1.02 Fold DMSO | 1.79 Fold DMSO | 1.03 Fold DMSO | 0.93 Fold DMSO | – | – | – | – | – | – | – | – |
| Oc1ccc2[nH]ncc2c1 [Compound 18] | – | – | 0.98 Fold DMSO | 0.95 Fold DMSO | 106% | 101% | 106% | 0.98 fold DMSO | – | – | – | – |
| CC(Nc1ccccc1)c1cccnc1 (stereo not shown) [Compound 56] | – | – | 0.98 Fold DMSO | 0.94 Fold DMSO | 114% | – | – | – | 147% | retains little activity, if any | 0.94 fold DMSO | – |
| O=C(Nc1cccc(B(O)O)c1)c1cccnc1 [Compound 52] | – | – | – | – | 115% | – | 115% | – | 107% | – | – | – |
| O=C(Nc1ccccc1)N1CCNCC1 [Compound 7] | – | – | – | – | 105% | – | 105% | – | 82% | – | – | – |
| O=C(Nc1ccccc1Cl)c1cccnc1 [Compound 29] | – | – | 0.96 Fold DMSO | 0.95 Fold DMSO | 55% | – | – | – | 99% | – | 0.95 fold DMSO | – |
| O=C(Nc1ccccc1)c1ccc(C(F)(F)F)nc1 [Compound 62] | 0.93 Fold DMSO | 0.71 Fold DMSO | 1.03 Fold DMSO | 0.79 Fold DMSO | – | – | – | – | – | – | – | – |
| CC(=O)c1ccc2[nH]c(=O)[nH]c2c1 [Compound 76] | – | – | 0.98 Fold DMSO | – | 87% | – | 87% | 0.98 fold DMSO | – | – | – | loss of inhibitory activity |
| NCc1ccc2cn[nH]c2c1 [Compound 6] | – | – | 0.76 Fold DMSO | 0.77 Fold DMSO | 96% | 55% | 96% | 0.76 fold DMSO | – | – | – | – |
| O=C(Nc1ccc(C(F)(F)F)cc1)c1cccnc1 [Compound 65] | – | – | 1.17 Fold DMSO | 0.87 Fold DMSO | 115% | – | – | – | 98% | – | 0.87 fold DMSO | – |
| CC(=O)c1cccc2cn[nH]c12 [Compound 9] | – | – | 1.03 Fold DMSO | 0.96 Fold DMSO | 90% | 107% | 90% | 1.03 fold DMSO | – | – | – | inhibitory activity was completely lost |
| Nc1cccc(NC(=O)c2cccnc2)c1 [Compound 55] | – | – | 1.08 Fold DMSO | 0.96 Fold DMSO | 134% | – | – | – | 75% | – | 0.96 fold DMSO | – |
| OCc1ccc2cn[nH]c2c1 [Compound 3] | – | – | 0.93 Fold DMSO | 0.94 Fold DMSO | 110% | 89% | 110% | 0.93 fold DMSO | – | – | – | – |
| c1ccc(NCc2cccnc2)cc1 [Compound 63] | – | – | – | – | 81% | – | – | – | 138% | retains little activity, if any | – | – |
